Experimental data: patent US20260085073A1, “PYRAZOLYLCARBOXAMIDE COMPOUNDS AND THEIR USE IN THERAPY” (Hotspot Therapeutics, Inc., priority 2022, published 2026)

target: T1, MALT1 (Homo sapiens, UniProt Q9UDY8); experiment: MALT1 inhibition assay (MALT-1 Fluorogenic Peptide Cleavage Assay, Ac-LRSR-AMC substrate); assay type: biochemical; settings: Avi-tagged FL MALT-1, 30 min pre-incubation, 90 min reaction at room temperature, fluorescence intensity
T1 construct: Avi-tagged FL MALT-1 (Pharmaron, stored at −70° C.); Avi-tag
T1 sequence (Q9UDY8 1-824): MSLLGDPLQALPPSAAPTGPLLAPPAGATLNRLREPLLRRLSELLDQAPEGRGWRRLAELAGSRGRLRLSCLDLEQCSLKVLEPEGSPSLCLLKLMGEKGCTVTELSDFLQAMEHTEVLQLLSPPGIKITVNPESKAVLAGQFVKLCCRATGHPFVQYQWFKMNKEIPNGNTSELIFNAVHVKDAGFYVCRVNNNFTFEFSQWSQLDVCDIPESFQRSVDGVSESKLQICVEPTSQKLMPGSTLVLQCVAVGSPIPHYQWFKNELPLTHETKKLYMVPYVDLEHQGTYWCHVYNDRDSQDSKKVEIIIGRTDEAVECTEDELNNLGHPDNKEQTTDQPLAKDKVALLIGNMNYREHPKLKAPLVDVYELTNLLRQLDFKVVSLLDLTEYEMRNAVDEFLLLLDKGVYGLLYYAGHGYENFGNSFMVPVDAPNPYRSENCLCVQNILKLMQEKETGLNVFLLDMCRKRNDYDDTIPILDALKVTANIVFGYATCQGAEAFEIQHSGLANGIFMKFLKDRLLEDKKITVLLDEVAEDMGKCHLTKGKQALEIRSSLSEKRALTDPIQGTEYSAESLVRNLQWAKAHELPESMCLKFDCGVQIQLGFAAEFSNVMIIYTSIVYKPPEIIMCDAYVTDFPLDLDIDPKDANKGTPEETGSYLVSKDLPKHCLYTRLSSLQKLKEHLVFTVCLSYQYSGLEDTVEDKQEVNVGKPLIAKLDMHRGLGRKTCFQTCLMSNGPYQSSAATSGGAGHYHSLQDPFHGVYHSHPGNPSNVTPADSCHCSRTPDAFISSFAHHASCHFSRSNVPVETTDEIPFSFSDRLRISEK
Procedure: Example 71—MALT1 Inhibition Assay
Compounds were tested for ability to bind to MALT1.
Inhibition of MALT1 activity by the presence of small molecules was evaluated using MALT-1 Fluorogenic Peptide Cleavage Assay. The assay utilizes a quenched AMC-labelled peptide that contains the MALT-1 recognition sequence and cleavage site (LRSR). MALT-1 mediated cleavage of the peptide relieves the quenching and leads to an increase in fluorescence at excitation (342 nm) and emission (441 nm).
The following reagents were obtained commercially and used to prepare standard reagent formulations as further described below: N-2-hydroxyethylpiperazine-N-2-ethane sulfonic acid (HEPES) (1 M, pH 7.5, stored at 4° C.), sodium citrate (stored at RT), tris(2-carboxyethyl) phosphine hydrochloride (T-CEP) (500 mM, stored at −20° C.), ethylenediaminetetraacetic acid (EDTA) (500 mM, stored at RT), dimethylsulfoxide (DMSO, stored at RT), 3-[(3-cholamidopropyl)dimethylammonio]-1-propane sulphate (CHAPS) (stored at RT), dimethylsulfoxide (DMSO), DMSO (Fisher Scientific, stored at RT), Avi-tagged FL MALT-1 (Pharmaron, stored at −70° C.), Ac-LRSR-AMC Peptide (SM Biochemicals, stored at −20° C.), and ultrapure water (MILLI-QR).
The standard reagent formulations used in this assay were prepared and stored as follows. A 1.1 M solution of sodium citrate (161.3 g, 500 mL) was prepared and stored at room temperature. A 10% (w/v) CHAPS solution (2.0 g, 20 mL) was prepared and stored at 4° C. A 500 mM HEPES solution having pH of 6.89 was prepared from 200 mL of a 1 M HEPES solution having a pH of 7.5 using concentrated hydrochloric acid and brought to a final volume of 400 mL with MILLI-QR H2O. The substrate, 10 mM Ac-LRSR-AMC Peptide, was prepared (10 mg, 1.370 mL DMSO) and stored at −20° C.
Compounds were plated to provide a 2% DMSO final concentration using a ProxiPlate-384 Plus F Black 384-shallow well microplate. The assay-ready plates were equilibrated to room temperature. A reaction buffer (30 mL total volume) was prepared by combining HEPES (pH 6.89, 25 mM, 1.5 mL), sodium citrate (660 mM, 18.0 mL), T-CEP (1 mM, 0.06 mL), EDTA ([…], 0.06 mL), CHAPS (0.05%, 0.15 mL), DMSO (2%, 0.6 mL), and MILLI-QR H2O (10.23 mL; 9.63 mL when backfilled to 2% DMSO) followed by thorough mixing. DMSO was added only when compound plates had not been DMSO-backfilled to 2%.
MALT-1 was thawed and kept on ice. Peptide substrate was thawed on the bench under ambient conditions. A MALT-1 enzyme working stock was prepared from Avi-tagged FL MALT-1 (40 nM in a prepared reagent volume of 16.5 μL) and the reaction buffer (13.0 mL). MALT1 working stock (5 μL) was added to each well of the microplate. MALT-1 was pre-incubated with compounds for 30 minutes at room temperature.
Two substrate working stocks (Km and 10×Km) were prepared. The 1×Km substrate was prepared from Ac-LRSR-AMC Peptide (50 μM in a prepared reagent volume of 35.0 μL) and the reaction buffer (6.965 mL). The 10×Km substrate was prepared from Ac-LRSR-AMC Peptide (280 μM in a prepared reagent volume of 196.0 μL) and the reaction buffer (6.804 mL). The reaction was initiated by the addition of substrate working stock (5 μL, 50 μM) to Km plates and the addition of substrate working stock (5 μL 280 μM) to 10×Km plates. The plates were covered and incubated on the bench at room temperature for 90 minutes.
Fluorescence intensity was determined using a CLARIOstar microplate reader (BMG LABTECH) using the optimised AMC mode. Before taking readings, a 70% gain was applied on the neutral control well. Compound data were normalised to % Inhibition and used to plot sigmoidal concentration response curves to yield various parameters including IC50.

| Compound | IC50 [nM] |
| --- | --- |
| Cn1nc([C@@H]2C[C@H]2c2ccccc2)c(C(F)(F)F)c1C(=O)Nc1ccnc(C(F)(F)F)c1 (racemic) [Compound I-40] | > 10000 |
| Cn1nc(-c2csc3cnccc23)c(C(F)(F)F)c1C(=O)Nc1ccnc(C(F)(F)F)c1 [Compound I-1, 1-methyl-3-(thieno[2,3-c]pyridin-3-yl)-4-(trifluoromethyl)-N-(2-(trifluoromethyl)pyridin-4-yl)-1H-pyrazole-5-carboxamide] | < 500 |
| Cn1nc(-c2cccc3c2OCC(=O)N3)c(C(F)(F)F)c1C(=O)Nc1ccnc(C(F)(F)F)c1 [Compound I-2] | 2500 to 10000 |
| Cn1nc(-c2cccc3c2CCNC3=O)c(C(F)(F)F)c1C(=O)Nc1ccnc(C(F)(F)F)c1 [Compound I-3] | 2500 to 10000 |
| Cn1nc(-c2cccc3ncn(C)c23)c(C(F)(F)F)c1C(=O)Nc1ccnc(C(F)(F)F)c1 [Compound I-4] | < 500 |
| Cn1cc2cccc(-c3nn(C)c(C(=O)Nc4ccnc(C(F)(F)F)c4)c3C(F)(F)F)c2n1 [Compound I-5] | 2500 to 10000 |
| Cn1nc(-c2c[nH]c3ncccc23)c(C(F)(F)F)c1C(=O)Nc1ccnc(C(F)(F)F)c1 [Compound I-6] | < 500 |
| Cn1nc(-c2cccc3cccnc23)c(C(F)(F)F)c1C(=O)Nc1ccnc(C(F)(F)F)c1 [Compound I-7] | 500 to 2500 |
| Cn1nc(-c2ccc(=O)n(C)c2)c(C(F)(F)F)c1C(=O)Nc1ccnc(C(F)(F)F)c1 [Compound I-8] | 2500 to 10000 |
| Cn1nc(-c2cccc3ocnc23)c(C(F)(F)F)c1C(=O)Nc1ccnc(C(F)(F)F)c1 [Compound I-9] | < 500 |
| Cn1nc(-c2cccc3nc[nH]c23)c(C(F)(F)F)c1C(=O)Nc1ccnc(C(F)(F)F)c1 [Compound I-10] | 500 to 2500 |
| Cn1nc(-c2cccc3ncoc23)c(C(F)(F)F)c1C(=O)Nc1ccnc(C(F)(F)F)c1 [Compound I-11] | < 500 |
| Cn1nc(-c2cccc3c2CC(=O)N3)c(C(F)(F)F)c1C(=O)Nc1ccnc(C(F)(F)F)c1 [Compound I-12] | 500 to 2500 |
| Cn1nc(-c2cccc3nccn23)c(C(F)(F)F)c1C(=O)Nc1ccnc(C(F)(F)F)c1 [Compound I-13] | 500 to 2500 |
| Cn1nc(-c2ccnc3ccoc23)c(C(F)(F)F)c1C(=O)Nc1ccnc(C(F)(F)F)c1 [Compound I-14] | < 500 |
| Cn1nc(-c2cnc3ncccn23)c(C(F)(F)F)c1C(=O)Nc1ccnc(C(F)(F)F)c1 [Compound I-15] | > 10000 |
| Cn1nc(-c2cnc3cccnn23)c(C(F)(F)F)c1C(=O)Nc1ccnc(C(F)(F)F)c1 [Compound I-16] | > 10000 |
| Cc1ccc(-c2nn(C)c(C(=O)Nc3ccnc(C(F)(F)F)c3)c2C(F)(F)F)c(Cl)c1 [Compound I-18] | 500 to 2500 |
| COc1ccncc1-c1nn(C)c(C(=O)Nc2ccnc(C(F)(F)F)c2)c1C(F)(F)F [Compound I-19] | 500 to 2500 |
| COc1cccc(OC)c1-c1nn(C)c(C(=O)Nc2ccnc(C(F)(F)F)c2)c1C(F)(F)F [Compound I-20] | 500 to 2500 |
| Cn1nc(-c2cccc3nccnc23)c(C(F)(F)F)c1C(=O)Nc1ccnc(C(F)(F)F)c1 [Compound I-21] | 500 to 2500 |

| Compound | IC50 [nM] |
| --- | --- |
| Cn1nc(-c2ccc(C#N)c3ncccc23)c(C(F)(F)F)c1C(=O)Nc1ccnc(C(F)(F)F)c1 [Compound I-22] | 500 to 2500 |
| Cn1nc(-c2cccc3c2NC(=O)C3)c(C(F)(F)F)c1C(=O)Nc1ccnc(C(F)(F)F)c1 [Compound I-23] | 500 to 2500 |
| Cn1nc(-c2cccc3c(C#N)nccc23)c(C(F)(F)F)c1C(=O)Nc1ccnc(C(F)(F)F)c1 [Compound I-24] | 500 to 2500 |
| Cn1nc(-c2cccc3c2OCCCO3)c(C(F)(F)F)c1C(=O)Nc1ccnc(C(F)(F)F)c1 [Compound I-25] | 2500 to 10000 |
| Cn1nc(-c2cnn3c2OCCC3)c(C(F)(F)F)c1C(=O)Nc1ccnc(C(F)(F)F)c1 [Compound I-26] | > 10000 |
| Cn1nc(-c2cccc3cnccc23)c(C(F)(F)F)c1C(=O)Nc1ccnc(C(F)(F)F)c1 [Compound I-27] | 500 to 2500 |
| Cn1nc(-c2ccccc2OC2COC2)c(C(F)(F)F)c1C(=O)Nc1ccnc(C(F)(F)F)c1 [Compound I-28] | 2500 to 10000 |
| Cn1nc(-c2cccc3ccoc23)c(C(F)(F)F)c1C(=O)Nc1ccnc(C(F)(F)F)c1 [Compound I-29] | < 500 |
| Cn1nc(-c2cccc3ccoc23)c(C(F)(F)F)c1C(=O)Nc1cnc(-n2nccn2)c(C#N)c1 [Compound I-30] | < 500 |
| Cn1nc(-c2cccc3cnccc23)c(C(F)(F)F)c1C(=O)Nc1cnc(-n2nccn2)c(C#N)c1 [Compound I-31] | < 500 |
| Cn1nc(/C=C/c2ccccc2)c(C(F)(F)F)c1C(=O)Nc1ccnc(C(F)(F)F)c1 [Compound I-32] | > 10000 |
| Cn1nc(-c2cccc3c2OCO3)c(C(F)(F)F)c1C(=O)Nc1ccnc(C(F)(F)F)c1 [Compound I-33] | < 500 |
| Cn1nc(-c2ccccc2OC2COC2)c(C(F)(F)F)c1C(=O)Nc1cnc(-n2nccn2)c(C#N)c1 [Compound I-34] | 500 to 2500 |
| Cn1nc(-c2ccc(C#N)cc2Cl)c(C(F)(F)F)c1C(=O)Nc1cnc(-n2nccn2)c(C#N)c1 [Compound I-35] | < 500 |
| Cn1nc(-c2ccc(C#N)cc2Cl)c(C(F)(F)F)c1C(=O)Nc1cnc(-n2nccn2)c(Cl)c1 [Compound I-36] | < 500 |
| Cn1nc(-c2ccc3cnccc3c2)c(C(F)(F)F)c1C(=O)Nc1ccnc(C(F)(F)F)c1 [Compound I-37] | > 10000 |
| Cn1nc(-c2cccc3ncccc23)c(C(F)(F)F)c1C(=O)Nc1cnc(-n2nccn2)c(C#N)c1 [Compound I-38] | 500 to 2500 |
| Cn1nc(-c2cccc3ncccc23)c(C(F)(F)F)c1C(=O)Nc1ccnc(C(F)(F)F)c1 [Compound I-39] | 500 to 2500 |
| Cn1nc(-c2ccc(C#N)cc2Cl)c(C(F)(F)F)c1C(=O)Nc1ccnc(C(F)(F)F)c1 [Compound I-41] | < 500 |
| Cn1nc(-c2cncc3sccc23)c(C(F)(F)F)c1C(=O)Nc1ccnc(C(F)(F)F)c1 [Compound I-42, 1-methyl-3-(thieno[2,3-c]pyridin-4-yl)-4-(trifluoromethyl)-N-(2-(trifluoromethyl)pyridin-4-yl)-1H-pyrazole-5-carboxamide] | < 500 |
